Measurements from US12371428B2 (Exelixis, Inc., priority 2019, dated 2025).
Where two headings read alike, the source gives them in different places.

Experiments:
Type in all cases: cell-based
[1] = biological target: Mer (phospho-Mer, MERTK-transfected 293A cells) (Homo sapiens (Human), UniProt Q12866); test: Mer autophosphorylation ELISA in transient transfected 293A cells (Example H); details: cellular activity
Summary of the method: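 IC50 from 4-parameter logistic fit of phospho-Mer levels, quantified by ELISA against a phospho-Mer standard in lysates of MERTK-transfected 293A cells. Cells exposed 1 h to 8-point serial dilutions, serum-free, 0.3% DMSO; controls: DMSO (100%) and reference inhibitor (0%).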

[2] = biological target: Met (phospho-Met, HGF-stimulated PC-3 prostate cancer cells) (Homo sapiens (Human), UniProt P08581); test: Met autophosphorylation ELISA in PC-3 cells (Example F); details: cellular activity, read-out: c-Met IC50
Summary of the method: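 Sandwich ELISA for phospho-Met (panTyr) in PC-3 lysates. Cells starved 3 h serum-free, compound 1 h (8-pt curve, 0.3% DMSO), HGF 100 ng/mL 10 min. 100% = HGF + DMSO; 0% = HGF + reference inhibitor. IC50 by 4-parameter fit.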

[3] = biological target: KDR (phospho-KDR, VEGF165-stimulated HUVEC cells) (Homo sapiens (Human), UniProt P35968); test: KDR autophosphorylation ELISA in HUVEC cells (Example G); details: cellular activity; KDR autophosphorylation ELISA in HUVEC cells
Summary of the method: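 Inhibition of VEGF165-driven KDR autophosphorylation is measured in primary human umbilical vein endothelial cells after 24 h serum deprivation. Compound preincubation lasts 1 h before a 5-minute challenge with 100 ng/mL ligand, and phosphorylated receptor is then measured by ELISA in the lysates.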

[4] = biological target: AXL (phospho-AXL, Gas6-stimulated A-172 glioblastoma cells) (Homo sapiens (Human), UniProt P30530); test: AXL autophosphorylation ELISA in A-172 cells (Example E); details: cellular activity, read-out: Axl IC50
Method: A-172 cells were incubated at 37° C., 5% CO2 for 24 h and then starved for 24 h in serum-free medium. Test compounds were serially diluted to produce an 8-point dose curve in fresh serum-free medium to a final concentration of 0.3% DMSO (vehicle) and added to the cells and incubated for 1 h. […] Lysates were collected and 100 μL/well added into the human phospho-AXL DuoSet IC ELISA (R&D Systems #DYC2228-2). […] Positive control wells (100% activity) contained Gas6-stimulated, DMSO-treated cell lysates. Negative control wells (0% activity) contained Gas6-stimulated, reference inhibitor-treated cell lysates. IC50 values were calculated by nonlinear regression analysis using a 4-parameter logistic curve fit in ActivityBase XE (IDBS).

[5] = Mer autophosphorylation ELISA in transient transfected 293A cells
[6] = Met autophosphorylation ELISA in PC-3 cells
[7] = AXL autophosphorylation ELISA in A-172 cells

Sequence of Mer (phospho-Mer, MERTK-transfected 293A cells) (Q12866 21-999): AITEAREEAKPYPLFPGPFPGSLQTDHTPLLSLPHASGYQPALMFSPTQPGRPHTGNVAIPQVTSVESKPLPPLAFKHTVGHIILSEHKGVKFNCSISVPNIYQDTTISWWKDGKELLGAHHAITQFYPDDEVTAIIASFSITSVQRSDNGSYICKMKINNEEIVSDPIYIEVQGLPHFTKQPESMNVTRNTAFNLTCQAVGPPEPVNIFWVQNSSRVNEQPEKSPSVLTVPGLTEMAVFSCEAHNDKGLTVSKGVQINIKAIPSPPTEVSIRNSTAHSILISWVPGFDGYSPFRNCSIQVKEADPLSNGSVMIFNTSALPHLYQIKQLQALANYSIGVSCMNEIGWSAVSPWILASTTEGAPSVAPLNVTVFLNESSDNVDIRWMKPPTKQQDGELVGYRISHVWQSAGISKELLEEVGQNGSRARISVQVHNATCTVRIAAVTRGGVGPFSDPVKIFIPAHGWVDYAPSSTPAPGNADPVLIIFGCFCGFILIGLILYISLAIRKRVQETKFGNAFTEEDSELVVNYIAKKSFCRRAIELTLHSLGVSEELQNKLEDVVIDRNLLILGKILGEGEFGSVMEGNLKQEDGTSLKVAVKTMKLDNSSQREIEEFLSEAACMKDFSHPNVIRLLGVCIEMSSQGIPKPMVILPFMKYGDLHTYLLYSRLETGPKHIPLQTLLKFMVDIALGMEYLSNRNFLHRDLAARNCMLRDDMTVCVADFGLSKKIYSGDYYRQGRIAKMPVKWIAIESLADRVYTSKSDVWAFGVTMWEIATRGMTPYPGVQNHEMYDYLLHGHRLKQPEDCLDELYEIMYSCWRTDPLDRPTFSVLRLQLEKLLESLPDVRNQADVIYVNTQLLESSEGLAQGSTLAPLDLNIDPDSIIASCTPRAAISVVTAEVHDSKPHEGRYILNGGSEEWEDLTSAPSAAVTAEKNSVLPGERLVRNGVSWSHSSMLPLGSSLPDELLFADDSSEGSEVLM
Sequence of KDR (phospho-KDR, VEGF165-stimulated HUVEC cells) (P35968 20-1356): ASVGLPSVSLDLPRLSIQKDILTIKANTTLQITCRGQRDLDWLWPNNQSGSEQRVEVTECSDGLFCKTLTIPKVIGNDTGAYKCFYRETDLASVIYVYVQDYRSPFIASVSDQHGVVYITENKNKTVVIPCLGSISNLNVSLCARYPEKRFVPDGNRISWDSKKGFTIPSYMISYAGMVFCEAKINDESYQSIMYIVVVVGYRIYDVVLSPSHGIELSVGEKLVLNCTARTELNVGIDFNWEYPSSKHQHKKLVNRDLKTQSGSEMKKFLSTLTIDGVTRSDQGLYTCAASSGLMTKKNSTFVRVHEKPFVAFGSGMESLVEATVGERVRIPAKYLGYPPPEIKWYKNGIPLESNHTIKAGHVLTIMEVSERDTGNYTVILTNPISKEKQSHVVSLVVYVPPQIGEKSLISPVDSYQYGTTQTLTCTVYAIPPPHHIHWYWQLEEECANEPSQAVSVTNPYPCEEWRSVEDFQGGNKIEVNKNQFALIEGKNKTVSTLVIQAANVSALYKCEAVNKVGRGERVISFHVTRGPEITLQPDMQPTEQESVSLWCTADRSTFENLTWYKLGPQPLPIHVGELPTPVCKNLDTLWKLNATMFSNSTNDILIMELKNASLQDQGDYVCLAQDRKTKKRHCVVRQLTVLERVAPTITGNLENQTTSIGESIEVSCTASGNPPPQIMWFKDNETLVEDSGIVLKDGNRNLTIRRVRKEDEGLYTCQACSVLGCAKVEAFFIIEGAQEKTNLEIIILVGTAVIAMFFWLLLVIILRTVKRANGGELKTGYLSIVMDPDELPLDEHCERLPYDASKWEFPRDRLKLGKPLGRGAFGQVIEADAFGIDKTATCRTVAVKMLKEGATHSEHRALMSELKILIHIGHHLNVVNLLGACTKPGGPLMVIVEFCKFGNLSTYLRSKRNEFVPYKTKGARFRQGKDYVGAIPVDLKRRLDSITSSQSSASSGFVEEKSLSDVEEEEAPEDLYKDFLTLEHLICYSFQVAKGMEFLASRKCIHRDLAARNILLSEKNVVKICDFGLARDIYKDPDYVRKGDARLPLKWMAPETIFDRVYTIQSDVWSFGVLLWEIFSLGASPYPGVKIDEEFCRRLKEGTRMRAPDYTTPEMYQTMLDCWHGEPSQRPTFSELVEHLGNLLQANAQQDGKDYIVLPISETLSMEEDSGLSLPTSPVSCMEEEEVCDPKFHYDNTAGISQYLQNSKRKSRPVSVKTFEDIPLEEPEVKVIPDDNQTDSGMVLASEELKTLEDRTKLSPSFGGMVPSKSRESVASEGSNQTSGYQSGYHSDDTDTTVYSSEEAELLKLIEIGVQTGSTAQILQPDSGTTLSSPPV
Sequence of Met (phospho-Met, HGF-stimulated PC-3 prostate cancer cells) (P08581 25-1390): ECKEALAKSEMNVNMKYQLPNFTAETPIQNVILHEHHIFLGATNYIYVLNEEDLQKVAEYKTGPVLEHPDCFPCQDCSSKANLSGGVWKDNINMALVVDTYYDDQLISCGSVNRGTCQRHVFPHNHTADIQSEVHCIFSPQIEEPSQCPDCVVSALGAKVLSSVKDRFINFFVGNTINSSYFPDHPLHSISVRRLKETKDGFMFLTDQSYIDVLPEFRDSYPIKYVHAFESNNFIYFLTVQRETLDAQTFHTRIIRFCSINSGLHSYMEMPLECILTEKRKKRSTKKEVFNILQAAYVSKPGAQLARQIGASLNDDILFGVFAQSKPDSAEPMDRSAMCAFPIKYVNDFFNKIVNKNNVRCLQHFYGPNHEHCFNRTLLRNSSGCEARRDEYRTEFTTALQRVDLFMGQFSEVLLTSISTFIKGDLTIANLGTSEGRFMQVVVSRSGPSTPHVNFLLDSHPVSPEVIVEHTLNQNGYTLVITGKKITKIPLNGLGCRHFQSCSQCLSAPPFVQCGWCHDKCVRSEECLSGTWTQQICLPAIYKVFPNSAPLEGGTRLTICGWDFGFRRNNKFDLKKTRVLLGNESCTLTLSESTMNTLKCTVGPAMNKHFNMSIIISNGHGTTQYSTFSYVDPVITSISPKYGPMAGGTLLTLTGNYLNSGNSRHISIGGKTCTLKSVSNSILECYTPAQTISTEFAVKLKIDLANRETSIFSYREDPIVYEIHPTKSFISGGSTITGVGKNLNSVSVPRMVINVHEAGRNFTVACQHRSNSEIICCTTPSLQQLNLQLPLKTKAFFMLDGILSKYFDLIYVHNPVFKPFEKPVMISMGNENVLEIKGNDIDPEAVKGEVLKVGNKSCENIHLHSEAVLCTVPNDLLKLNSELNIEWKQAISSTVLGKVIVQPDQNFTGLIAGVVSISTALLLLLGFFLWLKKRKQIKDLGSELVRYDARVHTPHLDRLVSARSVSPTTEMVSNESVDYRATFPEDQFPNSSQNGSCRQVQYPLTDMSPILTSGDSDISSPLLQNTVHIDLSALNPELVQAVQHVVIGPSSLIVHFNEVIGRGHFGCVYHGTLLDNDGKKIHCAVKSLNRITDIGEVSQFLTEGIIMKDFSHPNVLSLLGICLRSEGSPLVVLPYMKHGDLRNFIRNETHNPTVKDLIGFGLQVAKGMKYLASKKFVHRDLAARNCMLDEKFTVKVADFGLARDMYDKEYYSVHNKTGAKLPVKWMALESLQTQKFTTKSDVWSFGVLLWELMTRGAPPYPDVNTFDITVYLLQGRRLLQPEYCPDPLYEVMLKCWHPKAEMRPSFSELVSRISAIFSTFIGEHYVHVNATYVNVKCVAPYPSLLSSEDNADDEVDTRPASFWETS
Sequence of AXL (phospho-AXL, Gas6-stimulated A-172 glioblastoma cells) (P30530 26-894): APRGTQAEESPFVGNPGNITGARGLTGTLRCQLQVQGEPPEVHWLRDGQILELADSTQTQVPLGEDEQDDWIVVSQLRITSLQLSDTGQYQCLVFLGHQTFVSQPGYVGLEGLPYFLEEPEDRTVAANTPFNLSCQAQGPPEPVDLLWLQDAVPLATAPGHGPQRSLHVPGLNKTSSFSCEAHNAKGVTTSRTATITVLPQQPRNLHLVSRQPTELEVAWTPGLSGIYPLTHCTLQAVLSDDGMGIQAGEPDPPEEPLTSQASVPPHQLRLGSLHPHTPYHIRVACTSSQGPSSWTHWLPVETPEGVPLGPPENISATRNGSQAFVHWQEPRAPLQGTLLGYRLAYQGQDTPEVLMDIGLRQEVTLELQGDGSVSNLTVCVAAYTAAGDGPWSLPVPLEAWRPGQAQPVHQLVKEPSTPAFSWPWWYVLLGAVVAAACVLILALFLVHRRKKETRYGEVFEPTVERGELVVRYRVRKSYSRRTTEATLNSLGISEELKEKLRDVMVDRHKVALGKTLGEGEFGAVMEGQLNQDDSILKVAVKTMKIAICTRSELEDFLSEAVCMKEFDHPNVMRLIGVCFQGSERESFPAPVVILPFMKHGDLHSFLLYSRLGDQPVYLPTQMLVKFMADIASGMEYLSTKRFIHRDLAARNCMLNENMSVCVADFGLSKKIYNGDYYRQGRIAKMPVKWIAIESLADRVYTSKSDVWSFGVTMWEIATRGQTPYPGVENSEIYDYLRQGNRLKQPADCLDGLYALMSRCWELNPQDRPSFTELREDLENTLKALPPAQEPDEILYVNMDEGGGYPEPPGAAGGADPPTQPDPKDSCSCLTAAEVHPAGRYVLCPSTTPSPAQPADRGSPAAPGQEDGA

Row | Structure (SMILES) | IC50 [1, 5] | IC50 [2, 6] | IC50 [3] | IC50 [4, 7] | IC50 ([1]; transfected 293A cells) | IC50 ([2]; PC-3 cells) | IC50 ([4]; A-172 cells)
1 | COc1cc2nccc(Oc3ccc(NC(=O)c4cn(C5(C)COC5)cc(-c5ccc(F)cc5)c4=O)cc3F)c2nc1OC [Compound 54, N-[4-[(6,7-Dimethoxy-1,5-naphthyridin-4-yl)oxy]-3-fluorophenyl]-5-(4-fluorophenyl)-1-(3-methyloxetan-3-yl)-4-oxopyridine-3-carboxamide] | < 100 nM | < 100 nM | > 300 nM | < 100 nM |  |  | 
2 | COc1cc2nccc(Oc3ccc(NC(=O)c4cn(C5(C)COC5)cc(-c5ccc(F)cc5)c4=O)cc3F)c2cc1OC [Compound 55, N-[4-(6,7-Dimethoxyquinolin-4-yl)oxy-3-fluorophenyl]-5-(4-fluorophenyl)-1-(3-methyloxetan-3-yl)-4-oxopyridine-3-carboxamide] | < 100 nM | < 100 nM | > 300 nM | < 100 nM |  |  | 
3 | COc1cc2nccc(Oc3ccc(NC(=O)c4cn(C(C)(C)CO)cc(-c5ccc(F)cc5)c4=O)cc3F)c2cc1OC [Compound 57, N-[4-(6,7-Dimethoxyquinolin-4-yl)oxy-3-fluorophenyl]-5-(4-fluorophenyl)-1-(1-hydroxy-2-methylpropan-2-yl)-4-oxopyridine-3-carboxamide] | < 100 nM | < 100 nM | > 300 nM | < 100 nM |  |  | 
4 | CCn1cc(-c2ccc(F)cc2)c(=O)c(C(=O)Nc2ccc(Oc3ccnc4cc(OC)c(OC)nc34)cc2)c1C [Compound 244, N-[4-[(6,7-Dimethoxy-1,5-naphthyridin-4-yl)oxy]phenyl]-1-ethyl-5-(4-fluorophenyl)-2-methyl-4-oxopyridine-3-carboxamide] | < 100 nM | < 100 nM | > 300 nM | < 100 nM |  |  | 
5 | COc1cc2nccc(Oc3ccc(NC(=O)c4n[nH]c(C)c(-c5ccc(F)cc5)c4=O)cc3)c2nc1OC [Compound 253, N-[4-[(6,7-Dimethoxy-1,5-naphthyridin-4-yl)oxy]phenyl]-5-(4-fluorophenyl)-6-methyl-4-oxo-1H-pyridazine-3-carboxamide] | < 100 nM | < 100 nM | < 100 nM | < 100 nM |  |  | 
6 | COc1cnc2c(Oc3ccc(NC(=O)c4c(C)c(Br)c(C)n(-c5ccc(F)cc5)c4=O)cc3)ccnc2c1 [Compound 312, 5-Bromo-1-(4-fluorophenyl)-N-[4-[(7-methoxy-1,5-naphthyridin-4-yl)oxy]phenyl]-4,6-dimethyl-2-oxopyridine-3-carboxamide] | < 100 nM | < 100 nM | 100 to 300 nM | < 100 nM |  |  | 
7 | COc1cc2nccc(Oc3ccc(NC(=O)c4c(C)c(Br)c(C)n(-c5ccc(F)cc5)c4=O)cc3)c2nc1OC [Compound 313, 5-Bromo-N-[4-[(6,7-dimethoxy-1,5-naphthyridin-4-yl)oxy]phenyl]-1-(4-fluorophenyl)-4,6-dimethyl-2-oxopyridine-3-carboxamide] | < 100 nM | < 100 nM | < 100 nM | < 100 nM |  |  | 
8 | COc1cc2nccc(Oc3ccc(NC(=O)c4c(C)c(C)c(C)n(-c5ccc(F)cc5)c4=O)cc3)c2nc1OC [Compound 315, N-[4-[(6,7-Dimethoxy-1,5-naphthyridin-4-yl)oxy]phenyl]-1-(4-fluorophenyl)-4,5,6-trimethyl-2-oxopyridine-3-carboxamide] | < 100 nM | < 100 nM | < 100 nM | < 100 nM |  |  | 
9 | COc1cnc2c(Oc3ccc(NC(=O)c4c(C)n(CCF)cc(-c5ccc(F)c(F)c5)c4=O)cc3F)ccnc2c1 [Compound 807, 5-(3,4-difluorophenyl)-1-(2-fluoroethyl)-N-[3-fluoro-4-[(7-methoxy-1,5-naphthyridin-4-yl)oxy]phenyl]-2-methyl-4-oxopyridine-3-carboxamide] |  |  |  |  | < 100 nM | 100 to 300 nM | < 100 nM

The next lines start with the values.

Row | IC50 [1, 5] | IC50 [2, 6] | IC50 [3] | IC50 [4, 7] | IC50 ([1]; transfected 293A cells) | IC50 ([2]; PC-3 cells) | IC50 ([4]; A-172 cells) | Structure (SMILES)
10 | < 100 nM | < 100 nM | > 300 nM | < 100 nM |  |  |  | COc1cc2nccc(Oc3ccc(NC(=O)c4cn(C(C)(C)CO)cc(-c5ccc(F)cc5)c4=O)cc3F)c2nc1OC [Compound 56, N-[4-[(6,7-Dimethoxy-1,5-naphthyridin-4-yl)oxy]-3-fluorophenyl]-5-(4-fluorophenyl)-1-(1-hydroxy-2-methylpropan-2-yl)-4-oxopyridine-3-carboxamide]
11 | < 100 nM | < 100 nM | < 100 nM | < 100 nM |  |  |  | COCCOc1nc2c(Oc3ccc(NC(=O)c4c(C)nc(C)c(-c5ccc(F)cc5)c4O)cc3F)ccnc2cc1OC [Compound 207, N-[3-Fluoro-4-[[7-methoxy-6-(2-methoxyethoxy)-1,5-naphthyridin-4-yl]oxy]phenyl]-5-(4-fluorophenyl)-4-hydroxy-2,6-dimethylpyridine-3-carboxamide]
12 | < 100 nM | < 100 nM | < 100 nM | < 100 nM |  |  |  | COCCOc1nc2c(Oc3ccc(NC(=O)c4c(C)nc(C)c(-c5ccc(F)cc5C)c4O)cc3F)ccnc2cc1OC [Compound 208, N-[3-Fluoro-4-[[7-methoxy-6-(2-methoxyethoxy)-1,5-naphthyridin-4-yl]oxy]phenyl]-5-(4-fluoro-2-methylphenyl)-4-hydroxy-2,6-dimethylpyridine-3-carboxamide]
13 | < 100 nM | < 100 nM | < 100 nM | < 100 nM |  |  |  | COc1cc2nccc(Oc3ccc(NC(=O)c4c(C)ccn(-c5ccc(F)cc5C)c4=O)cc3F)c2nc1OC [Compound 311, N-[4-[(6,7-Dimethoxy-1,5-naphthyridin-4-yl)oxy]-3-fluorophenyl]-1-(4-fluoro-2-methylphenyl)-4-methyl-2-oxopyridine-3-carboxamide]
14 | < 100 nM | < 100 nM | < 100 nM | < 100 nM |  |  |  | COc1cnc2c(Oc3ccc(NC(=O)c4c(C)c(Br)c(C)n(-c5ccc(F)cc5)c4=O)cc3F)ccnc2c1 [Compound 314, 5-Bromo-N-[3-fluoro-4-[(7-methoxy-1,5-naphthyridin-4-yl)oxy]phenyl]-1-(4-fluorophenyl)-4,6-dimethyl-2-oxopyridine-3-carboxamide]
15 | < 100 nM | < 100 nM |  | < 100 nM |  |  |  | COc1cc2nccc(Oc3ccc(NC(=O)c4cn(CCF)c(C)c(-c5ccc(F)cc5C)c4=O)cc3F)c2nc1OC [Compound 801, N-[4-[(6,7-dimethoxy-1,5-naphthyridin-4-yl)oxy]-3-fluorophenyl]-1-(2-fluoroethyl)-5-(4-fluoro-2-methylphenyl)-6-methyl-4-oxopyridine-3-carboxamide]
16 |  |  |  |  | < 100 nM | < 100 nM | < 100 nM | COc1nc2c(Oc3ccc(NC(=O)c4cn(C)c(C)c(-c5ccc(F)cc5)c4=O)cc3F)ccnc2cc1N [Compound 803, N-[4-[(7-amino-6-methoxy-1,5-naphthyridin-4-yl)oxy]-3-fluorophenyl]-5-(4-fluorophenyl)-1,6-dimethyl-4-oxopyridine-3-carboxamide]
17 |  |  |  |  | < 100 nM | < 100 nM | < 100 nM | COc1nc2c(Oc3ccc(NC(=O)c4c(C)nc(C)c(-c5ccc(F)cc5C)c4O)cc3F)ccnc2cc1N [Compound 804, N-[4-[(7-amino-6-methoxy-1,5-naphthyridin-4-yl)oxy]-3-fluorophenyl]-5-(4-fluoro-2-methylphenyl)-4-hydroxy-2,6-dimethylpyridine-3-carboxamide]
18 |  |  |  |  | < 100 nM | < 100 nM | < 100 nM | COc1cc(F)ccc1-c1cn(CCF)c(C)c(C(=O)Nc2ccc(Oc3ccnc4cc(OC)c(OC)nc34)c(F)c2)c1=O [Compound 805, N-[4-[(6,7-dimethoxy-1,5-naphthyridin-4-yl)oxy]-3-fluorophenyl]-1-(2-fluoroethyl)-5-(4-fluoro-2-methoxyphenyl)-2-methyl-4-oxopyridine-3-carboxamide]
19 |  |  |  |  | < 100 nM | < 100 nM | < 100 nM | COc1cc2nccc(Oc3ccc(NC(=O)c4c(C)n(CCF)cc(-c5ccc(F)c(C)c5)c4=O)cc3F)c2nc1OC [Compound 806, N-[4-[(6,7-dimethoxy-1,5-naphthyridin-4-yl)oxy]-3-fluorophenyl]-1-(2-fluoroethyl)-5-(4-fluoro-3-methylphenyl)-2-methyl-4-oxopyridine-3-carboxamide]
